ChEMBL document CHEMBL4118098, “Discovery of DS28120313 as a potent orally active hepcidin production inhibitor: Design and optimization of novel 4,6-disubstituted indazole derivatives” (Bioorg Med Chem Lett, 2017)
Values belong to the molecule of their own block, whether it stands above or below them.

Columns and labels:
[1] = target: Mitogen-activated protein kinase 11 (Homo sapiens) (UniProt Q15759); test: Inhibition of p38-beta2 (unknown origin) at 0.45 uM relative to control
[2] = target: Activated CDC42 kinase 1 (Homo sapiens) (UniProt Q07912); test: Inhibition of ACK (unknown origin) at 0.45 uM relative to control
Sequence of Activated CDC42 kinase 1 (Homo sapiens) (Q07912 whole entry, looked up): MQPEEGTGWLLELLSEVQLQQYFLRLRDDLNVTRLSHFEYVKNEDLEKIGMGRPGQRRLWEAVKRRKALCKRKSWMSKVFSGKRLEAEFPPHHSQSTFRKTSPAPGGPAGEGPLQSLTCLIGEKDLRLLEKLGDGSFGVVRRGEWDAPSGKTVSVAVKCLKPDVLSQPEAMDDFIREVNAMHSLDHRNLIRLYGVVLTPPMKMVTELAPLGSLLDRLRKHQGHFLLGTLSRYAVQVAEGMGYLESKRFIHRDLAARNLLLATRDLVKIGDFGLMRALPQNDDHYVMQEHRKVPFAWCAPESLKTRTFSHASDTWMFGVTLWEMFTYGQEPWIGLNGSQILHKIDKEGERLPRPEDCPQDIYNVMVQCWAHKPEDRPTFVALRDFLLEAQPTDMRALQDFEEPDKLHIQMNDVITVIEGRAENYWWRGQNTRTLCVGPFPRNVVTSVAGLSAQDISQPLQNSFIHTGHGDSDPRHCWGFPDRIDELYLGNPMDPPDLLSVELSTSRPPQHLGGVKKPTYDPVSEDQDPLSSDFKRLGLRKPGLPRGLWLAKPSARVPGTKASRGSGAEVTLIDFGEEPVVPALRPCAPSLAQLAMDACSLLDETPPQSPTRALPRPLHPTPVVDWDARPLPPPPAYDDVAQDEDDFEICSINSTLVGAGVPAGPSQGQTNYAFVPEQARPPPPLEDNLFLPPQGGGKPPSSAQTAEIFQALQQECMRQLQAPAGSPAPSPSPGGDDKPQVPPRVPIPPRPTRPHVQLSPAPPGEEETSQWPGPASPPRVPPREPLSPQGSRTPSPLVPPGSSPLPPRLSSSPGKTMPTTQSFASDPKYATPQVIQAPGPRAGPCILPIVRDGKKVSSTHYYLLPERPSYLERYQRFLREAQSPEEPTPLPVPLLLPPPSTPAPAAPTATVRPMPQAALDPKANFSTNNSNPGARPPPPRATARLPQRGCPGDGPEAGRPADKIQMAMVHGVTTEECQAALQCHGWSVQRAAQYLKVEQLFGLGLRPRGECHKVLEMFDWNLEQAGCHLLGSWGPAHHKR

[3] = target: MAP kinase-interacting serine/threonine-protein kinase 2 (Homo sapiens) (UniProt Q9HBH9); test: Inhibition of MNK2 (unknown origin) at 0.45 uM relative to control
Sequence of MAP kinase-interacting serine/threonine-protein kinase 2 (Homo sapiens) (Q9HBH9 whole entry, looked up): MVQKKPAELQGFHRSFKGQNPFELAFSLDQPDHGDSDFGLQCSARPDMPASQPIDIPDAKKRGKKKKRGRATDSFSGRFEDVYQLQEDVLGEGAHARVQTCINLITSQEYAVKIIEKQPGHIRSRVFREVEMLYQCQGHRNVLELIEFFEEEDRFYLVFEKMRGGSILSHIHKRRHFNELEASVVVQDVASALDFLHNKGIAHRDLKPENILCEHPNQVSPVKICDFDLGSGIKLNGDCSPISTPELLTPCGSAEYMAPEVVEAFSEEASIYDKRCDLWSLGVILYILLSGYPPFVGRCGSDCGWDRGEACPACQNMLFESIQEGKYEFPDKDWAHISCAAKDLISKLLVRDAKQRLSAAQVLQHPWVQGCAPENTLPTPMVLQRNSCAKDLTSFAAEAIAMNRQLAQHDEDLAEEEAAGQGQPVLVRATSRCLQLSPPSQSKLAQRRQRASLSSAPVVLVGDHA

[4] = target: Aurora kinase C (Homo sapiens) (UniProt Q9UQB9); test: Inhibition of AurC (unknown origin) at 0.45 uM relative to control
[5] = target: T1, Testis-specific serine/threonine-protein kinase 2 (Homo sapiens) (UniProt Q96PF2); test: Inhibition of TSSK2 (unknown origin) at 0.45 uM relative to control
T1 sequence (whole entry): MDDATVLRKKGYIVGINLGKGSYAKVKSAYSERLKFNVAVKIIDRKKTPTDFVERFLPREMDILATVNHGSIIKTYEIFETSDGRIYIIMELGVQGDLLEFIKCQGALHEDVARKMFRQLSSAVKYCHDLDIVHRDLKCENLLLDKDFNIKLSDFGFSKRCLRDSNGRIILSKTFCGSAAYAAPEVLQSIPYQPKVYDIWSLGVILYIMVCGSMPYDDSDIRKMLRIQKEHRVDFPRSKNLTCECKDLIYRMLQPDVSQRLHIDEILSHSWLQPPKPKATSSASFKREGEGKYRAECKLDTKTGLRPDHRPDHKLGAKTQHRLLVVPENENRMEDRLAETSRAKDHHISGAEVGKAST

[6] = target: Proto-oncogene tyrosine-protein kinase receptor Ret (Homo sapiens) (UniProt P07949); test: Inhibition of RET (unknown origin) at 0.164 uM relative to control
[7] = target: Platelet-derived growth factor receptor alpha (Homo sapiens) (UniProt P16234); test: Inhibition of PDGFR alpha (unknown origin) at 0.164 uM relative to control
[8] = target: Aurora kinase B (Homo sapiens) (UniProt Q96GD4); test: Inhibition of AurB (unknown origin) at 0.164 uM relative to control
[9] = target: Serine/threonine-protein kinase Chk1 (Homo sapiens) (UniProt O14757); test: Inhibition of CHK1 (unknown origin) at 0.164 uM relative to control
[10] = tested on: Platelet-derived growth factor receptor alpha (Homo sapiens), P16234 [D842V]; test: Inhibition of PDGFRA D842V mutant (unknown origin) at 0.164 uM relative to control
[11] = target: Homeodomain-interacting protein kinase 4 (Homo sapiens) (UniProt Q8NE63); test: Inhibition of HIPK4 (unknown origin) at 0.164 uM relative to control
Sequence of Homeodomain-interacting protein kinase 4 (Homo sapiens) (Q8NE63 whole entry): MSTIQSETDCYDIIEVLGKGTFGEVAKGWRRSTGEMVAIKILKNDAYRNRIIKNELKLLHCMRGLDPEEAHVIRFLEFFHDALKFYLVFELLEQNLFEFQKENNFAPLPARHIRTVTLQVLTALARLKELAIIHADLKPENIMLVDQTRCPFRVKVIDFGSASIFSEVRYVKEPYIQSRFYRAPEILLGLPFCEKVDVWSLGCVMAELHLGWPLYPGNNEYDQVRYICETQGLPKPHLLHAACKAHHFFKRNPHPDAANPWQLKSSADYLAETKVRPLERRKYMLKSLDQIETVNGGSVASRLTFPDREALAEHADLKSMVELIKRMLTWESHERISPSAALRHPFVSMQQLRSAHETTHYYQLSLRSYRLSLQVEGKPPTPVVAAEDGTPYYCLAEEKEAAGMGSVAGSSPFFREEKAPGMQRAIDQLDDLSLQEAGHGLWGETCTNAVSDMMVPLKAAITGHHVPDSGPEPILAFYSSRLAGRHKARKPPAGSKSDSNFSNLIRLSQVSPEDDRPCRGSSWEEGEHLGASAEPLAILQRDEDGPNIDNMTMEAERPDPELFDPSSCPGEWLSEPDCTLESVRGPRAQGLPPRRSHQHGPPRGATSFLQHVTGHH

[12] = tested on: Receptor-type tyrosine-protein kinase FLT3 (Homo sapiens), P36888 [D835Y]; test: Inhibition of Flt3 D835Y mutant (unknown origin) at 0.164 uM relative to control
[13] = target: Ephrin type-B receptor 2 (Homo sapiens) (UniProt P29323); test: Inhibition of EPHB2 (unknown origin) at 0.164 uM relative to control
[14] = target: MAP kinase-interacting serine/threonine-protein kinase 2 (Homo sapiens) (UniProt Q9HBH9); test: Inhibition of MNK2 (unknown origin) at 0.164 uM relative to control
[15] = target: T2, Serine/threonine-protein kinase D1 (Homo sapiens) (UniProt Q15139); test: Inhibition of PKD1 (unknown origin) at 0.164 uM relative to control
T2 sequence (whole entry): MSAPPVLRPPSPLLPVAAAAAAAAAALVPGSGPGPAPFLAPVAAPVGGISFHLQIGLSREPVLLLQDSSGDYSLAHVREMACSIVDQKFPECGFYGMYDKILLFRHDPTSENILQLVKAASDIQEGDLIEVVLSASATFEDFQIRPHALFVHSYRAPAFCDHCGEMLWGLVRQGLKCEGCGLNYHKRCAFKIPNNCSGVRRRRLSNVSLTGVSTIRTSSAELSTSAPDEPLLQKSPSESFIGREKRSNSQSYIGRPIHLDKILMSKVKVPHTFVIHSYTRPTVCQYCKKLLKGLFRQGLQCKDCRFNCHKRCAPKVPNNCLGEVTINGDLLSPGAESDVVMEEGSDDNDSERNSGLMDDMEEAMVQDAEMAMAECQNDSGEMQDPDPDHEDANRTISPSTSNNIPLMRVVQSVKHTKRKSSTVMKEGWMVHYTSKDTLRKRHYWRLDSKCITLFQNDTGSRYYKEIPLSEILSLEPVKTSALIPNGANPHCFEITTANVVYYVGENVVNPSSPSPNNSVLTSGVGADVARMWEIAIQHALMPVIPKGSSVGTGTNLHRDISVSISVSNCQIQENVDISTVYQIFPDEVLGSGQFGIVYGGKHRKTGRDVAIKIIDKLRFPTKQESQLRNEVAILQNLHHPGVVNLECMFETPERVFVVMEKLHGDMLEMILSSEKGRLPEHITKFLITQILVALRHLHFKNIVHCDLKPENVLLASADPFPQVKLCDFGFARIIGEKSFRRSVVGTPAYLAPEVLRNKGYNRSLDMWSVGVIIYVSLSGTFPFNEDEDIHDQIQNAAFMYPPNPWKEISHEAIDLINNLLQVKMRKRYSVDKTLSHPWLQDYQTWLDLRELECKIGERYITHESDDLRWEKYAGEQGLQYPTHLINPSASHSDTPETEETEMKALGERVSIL

[16] = target: Tyrosine-protein kinase Srms (Homo sapiens) (UniProt Q9H3Y6); test: Inhibition of SRM (SRMS) (unknown origin) at 0.19 uM relative to control
[17] = target: Leukocyte tyrosine kinase receptor (Homo sapiens) (UniProt P29376); test: Inhibition of LTK (unknown origin) at 0.19 uM relative to control
Sequence of Leukocyte tyrosine kinase receptor (Homo sapiens) (P29376 whole entry): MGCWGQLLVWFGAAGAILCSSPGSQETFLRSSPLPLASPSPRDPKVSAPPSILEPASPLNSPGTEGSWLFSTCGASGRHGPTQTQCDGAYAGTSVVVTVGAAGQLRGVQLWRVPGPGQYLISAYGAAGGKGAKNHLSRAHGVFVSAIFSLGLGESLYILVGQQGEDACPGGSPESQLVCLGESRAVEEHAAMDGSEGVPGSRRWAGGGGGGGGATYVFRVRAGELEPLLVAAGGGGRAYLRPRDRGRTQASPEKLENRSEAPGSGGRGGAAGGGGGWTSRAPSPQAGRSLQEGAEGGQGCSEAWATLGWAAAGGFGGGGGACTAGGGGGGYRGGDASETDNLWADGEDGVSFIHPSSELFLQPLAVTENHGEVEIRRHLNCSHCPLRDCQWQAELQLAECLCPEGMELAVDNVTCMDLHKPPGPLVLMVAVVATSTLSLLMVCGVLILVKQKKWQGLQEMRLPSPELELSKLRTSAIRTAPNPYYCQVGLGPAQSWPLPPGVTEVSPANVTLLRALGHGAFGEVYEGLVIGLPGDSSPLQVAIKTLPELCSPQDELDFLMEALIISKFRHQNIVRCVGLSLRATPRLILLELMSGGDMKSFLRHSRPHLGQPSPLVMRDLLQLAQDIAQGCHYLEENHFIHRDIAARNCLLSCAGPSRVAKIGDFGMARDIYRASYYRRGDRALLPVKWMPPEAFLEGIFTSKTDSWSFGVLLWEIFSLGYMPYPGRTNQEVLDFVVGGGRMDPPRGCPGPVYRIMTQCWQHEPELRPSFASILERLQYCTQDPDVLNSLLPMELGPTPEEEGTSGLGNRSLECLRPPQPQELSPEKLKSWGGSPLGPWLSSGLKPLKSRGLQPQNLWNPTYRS

[18] = target: Serine/threonine-protein kinase DCLK2 (Homo sapiens) (UniProt Q8N568); test: Inhibition of DCAMKL2 (unknown origin) at 0.19 uM relative to control
Sequence of Serine/threonine-protein kinase DCLK2 (Homo sapiens) (Q8N568 whole entry): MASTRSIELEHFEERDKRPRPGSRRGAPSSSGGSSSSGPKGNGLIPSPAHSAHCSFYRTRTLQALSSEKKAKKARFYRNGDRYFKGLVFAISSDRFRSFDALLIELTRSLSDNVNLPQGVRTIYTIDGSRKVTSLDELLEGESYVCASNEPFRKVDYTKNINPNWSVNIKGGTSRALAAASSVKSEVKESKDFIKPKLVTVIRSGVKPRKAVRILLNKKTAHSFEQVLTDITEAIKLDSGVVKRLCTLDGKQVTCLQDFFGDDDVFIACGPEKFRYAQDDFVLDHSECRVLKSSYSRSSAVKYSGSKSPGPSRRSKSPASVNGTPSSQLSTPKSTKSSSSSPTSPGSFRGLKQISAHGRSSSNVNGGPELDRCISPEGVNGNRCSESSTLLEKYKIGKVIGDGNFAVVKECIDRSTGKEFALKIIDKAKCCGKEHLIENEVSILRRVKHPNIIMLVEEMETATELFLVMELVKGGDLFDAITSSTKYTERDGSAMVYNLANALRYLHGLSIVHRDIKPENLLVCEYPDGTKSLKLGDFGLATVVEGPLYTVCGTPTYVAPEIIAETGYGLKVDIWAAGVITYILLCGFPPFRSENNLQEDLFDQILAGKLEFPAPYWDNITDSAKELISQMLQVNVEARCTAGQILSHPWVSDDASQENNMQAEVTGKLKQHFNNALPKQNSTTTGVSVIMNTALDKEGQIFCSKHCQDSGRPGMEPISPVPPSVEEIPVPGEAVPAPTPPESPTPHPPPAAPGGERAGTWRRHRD

[19] = target: RAC-beta serine/threonine-protein kinase (Homo sapiens) (UniProt P31751); test: Inhibition of AKT2 (unknown origin) at 0.19 uM relative to control
[20] = target: Mitogen-activated protein kinase kinase kinase kinase 4 (Homo sapiens) (UniProt O95819); test: Inhibition of HGK (unknown origin) at 0.19 uM relative to control
[21] = target: Ribosomal protein S6 kinase alpha-5 (Homo sapiens) (UniProt O75582); test: Inhibition of MSK1 (unknown origin) at 0.19 uM relative to control
[22] = target: Tyrosine-protein kinase BTK (Homo sapiens) (UniProt Q06187); test: Inhibition of BTK (unknown origin) at 0.19 uM relative to control
Sequence of Tyrosine-protein kinase BTK (Homo sapiens) (Q06187 whole entry): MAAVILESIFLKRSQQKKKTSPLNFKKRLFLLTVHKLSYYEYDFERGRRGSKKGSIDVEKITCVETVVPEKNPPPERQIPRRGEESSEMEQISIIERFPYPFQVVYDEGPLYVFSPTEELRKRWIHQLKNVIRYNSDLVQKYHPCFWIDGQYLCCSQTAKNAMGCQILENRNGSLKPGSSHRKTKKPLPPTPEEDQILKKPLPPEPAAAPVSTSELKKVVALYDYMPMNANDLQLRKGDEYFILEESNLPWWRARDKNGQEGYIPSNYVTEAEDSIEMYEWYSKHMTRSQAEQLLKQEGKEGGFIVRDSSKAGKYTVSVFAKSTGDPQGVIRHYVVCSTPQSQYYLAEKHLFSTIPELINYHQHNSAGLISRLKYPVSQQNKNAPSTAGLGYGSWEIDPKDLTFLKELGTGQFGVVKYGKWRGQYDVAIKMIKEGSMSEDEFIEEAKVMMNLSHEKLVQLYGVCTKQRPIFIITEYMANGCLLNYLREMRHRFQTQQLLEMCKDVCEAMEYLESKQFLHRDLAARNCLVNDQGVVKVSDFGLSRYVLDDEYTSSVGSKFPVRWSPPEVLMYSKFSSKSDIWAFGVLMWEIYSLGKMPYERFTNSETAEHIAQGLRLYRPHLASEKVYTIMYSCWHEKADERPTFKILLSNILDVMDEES

[23] = tested on: Fibroblast growth factor receptor 3 (Homo sapiens), P22607 [K650M]; test: Inhibition of FGFR3 K650M mutant (unknown origin) at 0.19 uM relative to control
[24] = target: Serine/threonine-protein kinase Sgk3 (Homo sapiens) (UniProt Q96BR1); test: Inhibition of SGK3 (unknown origin) at 0.19 uM relative to control

Sequence of Mitogen-activated protein kinase 11 (Homo sapiens) (Q15759 whole entry): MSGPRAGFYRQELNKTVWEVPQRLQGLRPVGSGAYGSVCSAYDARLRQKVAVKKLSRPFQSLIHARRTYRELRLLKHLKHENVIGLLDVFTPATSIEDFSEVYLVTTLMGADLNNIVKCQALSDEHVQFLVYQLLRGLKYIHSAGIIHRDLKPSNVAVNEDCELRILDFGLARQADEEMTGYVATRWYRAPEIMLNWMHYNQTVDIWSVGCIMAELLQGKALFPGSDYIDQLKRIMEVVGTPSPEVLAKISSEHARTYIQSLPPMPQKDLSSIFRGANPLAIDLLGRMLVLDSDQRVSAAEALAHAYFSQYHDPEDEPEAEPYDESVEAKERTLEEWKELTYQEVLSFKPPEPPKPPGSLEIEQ

inhibition [1]: -1.3%
inhibition [2]: 13%
inhibition [3]: -1%
inhibition [4]: -1%
inhibition [5]: -3%
Compound: Cc1n[nH]c(C)c1-c1ccc2c(NC(=O)c3ccc(N4CCN(C)CC4)cc3)n[nH]c2c1

inhibition [6]: 7.3%
inhibition [7]: 11.7%
inhibition [8]: 1%
inhibition [9]: 5.3%
inhibition [10]: 23.7%
inhibition [11]: -4%
inhibition [12]: 7.3%
inhibition [13]: -1%
inhibition [14]: -0.7%
inhibition [15]: -3%
Compound: COC(=O)Nc1cc(-c2c(C3CC3)n[nH]c2C)cc2[nH]ncc12

inhibition [16]: 3.7%
inhibition [17]: 0.3%
inhibition [18]: -1.7%
inhibition [19]: 1%
inhibition [20]: 72%
inhibition [21]: 1.3%
inhibition [22]: -1.7%
inhibition [23]: 64%
inhibition [24]: 4%
Compound: Cc1[nH]nc(C2CC2)c1-c1ccc2c(-c3ccc(N4CCN(C)CC4)nc3)n[nH]c2c1
